Literature values in patent publication US20050176010A1, “Regulation of human transient receptor potential channel” (Bayer HealthCare AG, priority 2002, published 2005).

Legend:
[1] = system: cold receptors; conditions: all tested patients; Geirsson, J. Urol. 1993
[2] = target: mouse TRPM8 (Mus musculus, UniProt Q8R4D5); conditions: Peier et al., Cell 2002
[3] = system: cold receptors; conditions: animals; Lindstrom and Mazieres 1991, Mazieres et al. 1998
[4] = target: cold- and menthol-sensitive receptor (CMR1) (Rattus norvegicus, UniProt Q8R455); conditions: McKemy et al., Nature 2002
Chain of cold- and menthol-sensitive receptor (CMR1) (Q8R455 whole entry): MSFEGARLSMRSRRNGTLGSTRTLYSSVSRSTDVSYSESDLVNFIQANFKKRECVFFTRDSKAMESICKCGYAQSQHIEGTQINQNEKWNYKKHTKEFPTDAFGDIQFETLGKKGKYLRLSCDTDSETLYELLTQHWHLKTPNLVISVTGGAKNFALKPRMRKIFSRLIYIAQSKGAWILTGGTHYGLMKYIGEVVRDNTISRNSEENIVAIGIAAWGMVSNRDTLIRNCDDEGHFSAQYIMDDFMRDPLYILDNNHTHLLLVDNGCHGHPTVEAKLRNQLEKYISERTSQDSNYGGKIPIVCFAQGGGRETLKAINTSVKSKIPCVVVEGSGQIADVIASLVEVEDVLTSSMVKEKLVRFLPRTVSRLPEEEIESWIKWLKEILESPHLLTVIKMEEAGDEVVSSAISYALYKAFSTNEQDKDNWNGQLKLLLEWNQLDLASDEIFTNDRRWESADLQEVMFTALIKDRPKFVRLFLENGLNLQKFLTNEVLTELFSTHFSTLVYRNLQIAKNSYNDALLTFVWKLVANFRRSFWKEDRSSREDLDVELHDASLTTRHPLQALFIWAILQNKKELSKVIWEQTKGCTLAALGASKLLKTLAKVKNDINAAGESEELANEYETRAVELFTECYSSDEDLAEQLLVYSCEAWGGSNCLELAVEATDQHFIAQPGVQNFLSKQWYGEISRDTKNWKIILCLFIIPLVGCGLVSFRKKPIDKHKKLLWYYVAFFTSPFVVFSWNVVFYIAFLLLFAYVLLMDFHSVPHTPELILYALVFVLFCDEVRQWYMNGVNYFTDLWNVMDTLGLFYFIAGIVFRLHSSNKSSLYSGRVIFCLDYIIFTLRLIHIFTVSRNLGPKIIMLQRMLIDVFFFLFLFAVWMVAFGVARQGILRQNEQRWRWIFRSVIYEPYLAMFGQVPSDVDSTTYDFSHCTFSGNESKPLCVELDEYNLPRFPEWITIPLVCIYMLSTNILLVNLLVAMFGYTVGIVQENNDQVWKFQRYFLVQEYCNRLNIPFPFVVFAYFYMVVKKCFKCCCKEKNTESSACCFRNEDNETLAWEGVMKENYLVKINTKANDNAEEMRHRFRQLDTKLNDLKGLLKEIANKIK

Chain of mouse TRPM8 (Q8R4D5 whole entry): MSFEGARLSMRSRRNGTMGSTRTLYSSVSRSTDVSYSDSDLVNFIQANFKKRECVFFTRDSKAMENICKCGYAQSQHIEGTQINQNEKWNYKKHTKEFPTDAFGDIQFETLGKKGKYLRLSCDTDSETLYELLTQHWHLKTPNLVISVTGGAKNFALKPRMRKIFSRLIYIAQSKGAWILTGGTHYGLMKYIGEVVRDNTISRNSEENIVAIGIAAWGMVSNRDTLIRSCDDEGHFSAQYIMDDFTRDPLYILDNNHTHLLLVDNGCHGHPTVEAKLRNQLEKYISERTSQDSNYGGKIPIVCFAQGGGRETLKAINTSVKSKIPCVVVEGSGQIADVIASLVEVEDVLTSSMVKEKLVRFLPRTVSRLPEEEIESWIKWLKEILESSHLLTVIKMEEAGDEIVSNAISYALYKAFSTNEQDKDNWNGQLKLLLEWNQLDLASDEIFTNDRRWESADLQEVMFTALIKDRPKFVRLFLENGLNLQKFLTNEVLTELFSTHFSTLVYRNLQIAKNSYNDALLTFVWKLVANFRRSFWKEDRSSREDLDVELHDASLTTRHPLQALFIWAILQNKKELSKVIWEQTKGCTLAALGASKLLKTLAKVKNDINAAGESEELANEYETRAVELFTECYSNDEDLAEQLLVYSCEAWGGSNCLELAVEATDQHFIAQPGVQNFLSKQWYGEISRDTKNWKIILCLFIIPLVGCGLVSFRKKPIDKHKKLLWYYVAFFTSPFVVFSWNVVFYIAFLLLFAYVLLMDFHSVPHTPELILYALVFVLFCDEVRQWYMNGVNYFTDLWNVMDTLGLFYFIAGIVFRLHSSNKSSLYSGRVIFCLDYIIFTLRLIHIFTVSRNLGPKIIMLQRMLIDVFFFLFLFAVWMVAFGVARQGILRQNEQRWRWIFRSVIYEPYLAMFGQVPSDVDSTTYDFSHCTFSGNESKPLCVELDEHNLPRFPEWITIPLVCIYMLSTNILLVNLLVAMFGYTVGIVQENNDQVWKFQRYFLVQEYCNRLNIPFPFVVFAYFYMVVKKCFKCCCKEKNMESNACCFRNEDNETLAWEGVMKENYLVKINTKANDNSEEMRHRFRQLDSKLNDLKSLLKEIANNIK

CC1CCC(C(C)C)C(O)C1 (stereo not shown) [menthol]
threshold temperature of the cooling reflex [1]: shift of the threshold temperature of the cooling reflex towards a higher value | gating of the ion channel [2]: gated by cold stimuli and menthol | temperature response curve of the bladder cooling reflex [3]: shifts the temperature response curve of the bladder cooling reflex towards higher temperatures | activation of the channel receptor CMR1 [4]: activated
